By EC50 is commonly meant the concentration at which the effect is half-maximal.

The values that follow come from patent publication US11332485B2, “Penicillin-binding protein inhibitors” (priority 2017, dated 2022).

For one assay, the target named is T1, E. coli K12 PBP1a (Escherichia coli, UniProt P02918).
T1 construct: 100 μg's of total membrane protein extracts containing PBPs; endogenous in cells; host or cells: Escherichia coli K12 membrane fraction
The assay is described as follows: Bocillin FL competition binding assay (SDS-PAGE gel, membrane PBPs). The settings on record: 15 min. pre-incubation, membrane protein extracts, SDS-PAGE fluorescence scan. How it is done:
(§1) To determine the ability of test compounds to bind Penicillin Binding Proteins (PBPs), a competition binding assay using Bocillin FL (fluorescent derivative of penicillin V) was adapted from the classical method used to assess PBP potency of beta-lactams.
(§2) Penicillin binding proteins were isolated from Escherichia coli K12 by growth of Escherichia coli K12 from a single colony in 4 L of Luria-Bertani (LB) broth at 35° C. and 250 rpm to an OD600 nm of 0.5. The cells were harvested by centrifugation at 7,000×g for 10 min. at 4° C. Cells were resuspended and washed in 50 mM potassium phosphate pH 7.5. The cells were re-suspended in sonication buffer [50 mM Tris-HCl pH 7.5, 1 mM MgCl2, 1 mM beta-mercaptoethanol, and 5 μg/mL DNAse I] and sonicated by 4 passes of 30 seconds at 45 W on ice. The sample was clarified by centrifugation at 3,000×g to remove cell debris and unbroken cells and supernatant containing the membrane proteins was retained. The membrane proteins including the PBPs were further purified from soluble constituents by an ultracentrifugation step at 100,000×g for 30 min. at 4° C. The membrane proteins are washed twice with 10 mM sodium phosphate pH 7, resuspended in a volume of 5 mL, quantitated by BCA assay, adjusted to […] and frozen at −80° C. until use.
(§3) The adapted Bocillin FL competition binding assay described herein incorporates a 15 min. pre-incubation of test compound with isolated PBPs to attempt to balance the difference in mechanism of inhibition between beta-lactams (largely irreversible covalent bond to active site Serine) and the boron-containing PBP inhibitor test compounds (reversible covalent bond to active site Serine). Briefly, 50 μL reactions consisted of 100 μg's of total membrane protein extracts containing PBPs incubated with a dilution series of test compound ranging from 0.005 μg/mL to 2,480 μg/mL in 10 mM sodium phosphate pH7 containing 350 mM NaCl. Thirty minute reactions at 35° C. were initiated by addition of […] Bocillin FL, quenched by addition of SDS-PAGE loading buffer containing sodium dodecyl sulfate (SDS) and heated for 15 minutes at 95° C. to denature proteins in preparation for SDS-polyacrylamide gel electrophoresis. The Bocillin FL labeled PBPs are then separated by SDS-PAGE in Novex NuPage 10% Bis-Tris pre-cast gels (Invitrogen). The SDS-PAGE gel, post-electrophoresis, is then washed in water to remove excess SDS for 10 minutes at room temperature and placed on the scanning bed of a GE Healthcare/Amersham Biosciences Storm 860 fluorescence scanner. […] Effective PBP inhibitors are detected by a reduction in Bocillin FL labeling of the particular PBP over the dose range of test compound in a dose-responsive manner. […]

The next assay concerns the target T2, E. coli PBP3 (Escherichia coli, UniProt P0AD68).
T2 construct: 100 μg's of total membrane protein extracts containing PBPs; endogenous in cells; host or cells: Escherichia coli K12 membrane fraction
The description is as above. The settings on record: 15 min. pre-incubation, membrane protein extracts, SDS-PAGE fluorescence scan. The procedure: as §1, §2, §3

The next assay concerns E. coli PBP1b. Described as above. Also on record: species or system Escherichia coli. The settings on record: 15 min. pre-incubation, membrane protein extracts, SDS-PAGE fluorescence scan. How it is done: as §1
Penicillin binding proteins were isolated from Escherichia coli K12 by growth of Escherichia coli K12 from a single colony in 4 L of Luria-Bertani (LB) broth at 35° C. and 250 rpm to an OD600 nm of 0.5. The cells were harvested by centrifugation at 7,000×g for 10 min. at 4° C. Cells were resuspended and washed in 50 mM potassium phosphate pH 7.5. […] The membrane proteins are washed twice with 10 mM sodium phosphate pH 7, resuspended in a volume of 5 mL, quantitated by BCA assay, adjusted to 10 μg/mL and frozen at −80° C. until use.
The adapted Bocillin FL competition binding assay described herein incorporates a 15 min. pre-incubation of test compound with isolated PBPs to attempt to balance the difference in mechanism of inhibition between beta-lactams (largely irreversible covalent bond to active site Serine) and the boron-containing PBP inhibitor test compounds (reversible covalent bond to active site Serine). […] The SDS-PAGE gel, post-electrophoresis, is then washed in water to remove excess SDS for 10 minutes at room temperature and placed on the scanning bed of a GE Healthcare/Amersham Biosciences Storm 860 fluorescence scanner. […]

For a further assay, the system named is S. aureus ATCC 29213. The assay is described as follows: Broth microdilution MIC assay. The format is cell-based. The conditions noted are these: Staphylococcus aureus, ATCC29213; broth microdilution, 16-20 hours at 37° C.; read-out: S. aureus 29213 MIC. The method in brief: (§4)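 Per CLSI: log-phase cultures (3-5 h, 37° C) seeded at 5×10^5 CFU/mL into cation-supplemented Mueller-Hinton broth containing 2-fold compound dilutions. After 16-20 h at 37° C, MIC taken visually as lowest growth-free well, for S. aureus ATCC 29213 and E. coli 901C.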
(In general: Broth dilution looks for growth in wells or tubes with falling amounts of substance.)

Assay [1] has as its system hyper-permeable E. coli 901C. The assay is described as follows: Broth microdilution MIC assay. It counts as cell-based. The conditions noted are these: Escherichia coli, read-out: E. coli 901C MIC. The method in brief: as §4
In a further assay the test system is E. coli DH5α/pLBII. The assay is described as follows: Broth microdilution MIC assay, empty vector control strain. It counts as cell-based. The conditions noted are these: Escherichia coli, read-out: E. coli DH5α/pLBII Microbiological Activity (MIC). The method in brief:
(§5)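 CLSI broth microdilution in cation-supplemented Mueller-Hinton broth, 2-fold compound dilutions, 5×10^5 CFU/mL inoculum, 16-20 h at 37° C, MIC read visually as lowest concentration without growth. E. coli DH5α carries CTX-M15 on pLBII under Lac promoter, or empty pLBII as control.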

The subject of assay [2] is E. coli DH5α/pLBII-CTX-M15. The assay is described as follows: Broth microdilution MIC assay, engineered strain producing CTX-M15. It counts as cell-based, Escherichia coli. The conditions noted are these: Escherichia coli, read-out: E. coli DH5α/pLBII-CTX-M15 Microbiological Activity (MIC). The method in brief: as §5
Assay [3] deals with T3, PBP3 from Escherichia coli (Escherichia coli, UniProt P0AD68).
T3 construct: made in house
T3 sequence (P0AD68 1-577): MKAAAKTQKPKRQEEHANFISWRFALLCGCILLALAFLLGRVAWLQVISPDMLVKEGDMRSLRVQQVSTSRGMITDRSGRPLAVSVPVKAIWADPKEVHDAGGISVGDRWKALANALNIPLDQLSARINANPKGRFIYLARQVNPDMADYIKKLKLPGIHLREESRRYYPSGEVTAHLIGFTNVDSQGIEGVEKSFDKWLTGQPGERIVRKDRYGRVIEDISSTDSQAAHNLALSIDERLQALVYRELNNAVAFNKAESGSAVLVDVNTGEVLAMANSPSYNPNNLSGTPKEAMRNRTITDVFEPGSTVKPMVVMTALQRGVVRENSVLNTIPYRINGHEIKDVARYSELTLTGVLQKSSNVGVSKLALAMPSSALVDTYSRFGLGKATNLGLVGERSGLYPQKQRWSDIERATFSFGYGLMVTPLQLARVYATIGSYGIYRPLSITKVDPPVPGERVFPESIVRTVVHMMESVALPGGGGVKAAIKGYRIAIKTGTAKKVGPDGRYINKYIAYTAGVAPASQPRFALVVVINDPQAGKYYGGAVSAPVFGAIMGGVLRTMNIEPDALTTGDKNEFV
The assay is described as follows: Fluorescence polarization competition binding assay with Bocillin-FL. An outline of the steps:
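Fluorescence polarization competition assay with Bocillin-FL at 0.1 μM final and purified E. coli PBP3 at 1.5 μM final in 50 mM Hepes pH 8.0, 300 mM NaCl, 5% glycerol. Inhibitor preincubated with PBP3 for 30 min before probe addition; FP then read continuously for 60 min. Potency reported in binned categories.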

For assay [4], the target named is T4, PBP1a from Escherichia coli (Escherichia coli, UniProt P02918).
T4 construct: made in house
T4 sequence (P02918 whole entry): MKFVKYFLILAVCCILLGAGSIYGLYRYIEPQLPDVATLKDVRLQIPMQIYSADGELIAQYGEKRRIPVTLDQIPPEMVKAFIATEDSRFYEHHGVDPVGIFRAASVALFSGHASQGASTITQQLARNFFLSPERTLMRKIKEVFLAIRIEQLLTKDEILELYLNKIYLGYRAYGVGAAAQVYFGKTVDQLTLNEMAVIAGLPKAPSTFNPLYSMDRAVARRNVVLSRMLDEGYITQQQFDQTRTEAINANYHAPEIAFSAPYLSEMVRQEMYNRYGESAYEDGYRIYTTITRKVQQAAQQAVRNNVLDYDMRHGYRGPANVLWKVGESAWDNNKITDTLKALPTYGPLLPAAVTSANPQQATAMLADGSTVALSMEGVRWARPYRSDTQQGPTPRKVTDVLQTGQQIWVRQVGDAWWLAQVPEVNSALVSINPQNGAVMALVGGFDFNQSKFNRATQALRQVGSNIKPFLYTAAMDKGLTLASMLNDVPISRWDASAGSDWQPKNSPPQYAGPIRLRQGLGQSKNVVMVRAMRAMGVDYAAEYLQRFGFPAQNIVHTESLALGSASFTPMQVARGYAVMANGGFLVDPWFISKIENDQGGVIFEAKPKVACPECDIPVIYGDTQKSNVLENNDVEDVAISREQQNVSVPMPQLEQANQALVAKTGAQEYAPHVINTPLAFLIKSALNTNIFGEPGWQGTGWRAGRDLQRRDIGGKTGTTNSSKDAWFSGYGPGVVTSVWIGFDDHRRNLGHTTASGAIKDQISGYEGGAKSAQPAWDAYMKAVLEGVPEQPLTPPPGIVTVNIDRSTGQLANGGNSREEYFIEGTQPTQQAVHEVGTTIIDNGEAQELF
The assay is described as follows: Radioligand competition binding assay with 14C-labeled boronic acid probe (Example 96). The settings on record: 14C-labeled probe 96 at 20 μM, PBP 0.1 μM; read-out: E. coli K12 PBP1a EC50. An excerpt:
(§6) To determine the ability of boronic acid-based test PBP inhibitors to bind Penicillin Binding Proteins (PBPs), a radio-labelled boronic acid PBP inhibitor (Example 96) was used in competition binding assays to determine boronic acid PBP inhibitor binding to PBP1a or PBP1b from Escherichia coli. PBP1a and PBP1b were purified as described previously (Bertsche, U.; et al., J. Biol. Chem. 2005, 280 (45), 38096-38101; Born, P.; et al., J Biol. Chem. 2006. 281 (37), 26985-26993). To establish assay conditions for competition binding, an enzyme titration/saturation binding experiment was performed. Saturation binding was performed in a buffer comprised of 20 mM Tris (pH 7.5), 500 mM NaCl and 0.1% (v/v) TritonX-100, with PBP1a/PBP1b at a final concentration of 0.1 μM and 96 at final concentrations ranging from 0-100 μM. Mixtures were incubated for 60 minutes, then applied to Zeba Spin Desalting columns or plates (ThermoFisher Scientific) and centrifuged at 1000-1500×g for 2 minutes. The flow through, containing PBP bound with 96, was recovered and 100 μL mixed with 5 mL of UltimaGold liquid scintillation cocktail (Perkin Elmer), and the radioactivity counted using a Beckman Coulter LS 6500 Multipurpose scintillation counter. PBP binding of 96 approached saturation at 20 μM of ^14C-labeled probe. The competition binding assay was validated using the beta-lactam ampicillin, with 96 at a final concentration of 20 μM, PBP1a/PBP1b at a final concentration of 0.1 μM. PBP1a/PBP1b was incubated with ampicillin in a 96-well microplate for 60 minutes, then 96 was added and the mixtures incubated for an additional 60 minutes. The mixtures were then applied to Zeba Spin desalting plates and centrifuged at 1000×g for 2 minutes. The flow through was recovered and 100 μl mixed with 5 ml of UltimaGold liquid scintillation cocktail and the radioactivity counted. Ampicillin inhibited binding of 96 with an EC50 (the concentration of inhibitor required to reduce binding of 96 by 50%) of less than 0.5 μM. Binding assays with boronic acid PBP inhibitors were performed in an identical fashion. The potency of boronic acid PBP inhibitors was reported as the EC50 value.
(§7) Representative results are shown in Table 5, where A represents a potency of >100 μM, B represents a potency between 10 μM and 100 μM inclusive, and C represents a potency of <10 μM. NT=Not Tested.

Assay [5] has as its target T5, PBP1b from Escherichia coli (Escherichia coli, UniProt P02919).
T5 construct: made in house
Described as above. The settings on record: 14C-labeled probe 96 at 20 μM, PBP 0.1 μM; read-out: E. coli K12 PBP1b EC50.
Excerpt: as §6, §7

T5 sequence (P02919 whole entry): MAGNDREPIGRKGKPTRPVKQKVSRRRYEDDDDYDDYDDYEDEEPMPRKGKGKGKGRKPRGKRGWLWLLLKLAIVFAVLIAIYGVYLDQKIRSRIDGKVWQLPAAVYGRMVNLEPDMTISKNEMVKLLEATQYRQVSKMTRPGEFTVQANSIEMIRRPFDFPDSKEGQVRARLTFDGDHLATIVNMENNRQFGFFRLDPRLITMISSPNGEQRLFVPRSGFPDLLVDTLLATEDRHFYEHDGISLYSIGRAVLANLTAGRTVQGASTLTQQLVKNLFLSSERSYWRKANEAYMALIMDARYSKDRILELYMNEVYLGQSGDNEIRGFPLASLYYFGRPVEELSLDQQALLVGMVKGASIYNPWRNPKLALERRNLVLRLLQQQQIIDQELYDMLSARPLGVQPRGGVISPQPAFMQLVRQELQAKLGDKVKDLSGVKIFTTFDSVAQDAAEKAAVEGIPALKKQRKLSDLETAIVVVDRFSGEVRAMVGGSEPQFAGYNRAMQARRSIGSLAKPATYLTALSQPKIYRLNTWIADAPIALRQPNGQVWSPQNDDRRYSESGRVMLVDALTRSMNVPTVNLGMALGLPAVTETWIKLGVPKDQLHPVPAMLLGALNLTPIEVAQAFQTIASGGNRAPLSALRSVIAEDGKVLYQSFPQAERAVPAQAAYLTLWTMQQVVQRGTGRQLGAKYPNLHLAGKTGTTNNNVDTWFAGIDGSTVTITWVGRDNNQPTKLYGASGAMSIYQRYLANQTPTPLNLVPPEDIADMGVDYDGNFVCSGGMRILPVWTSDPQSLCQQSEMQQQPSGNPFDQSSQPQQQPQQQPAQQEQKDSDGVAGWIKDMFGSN
T1 sequence (P02918 whole entry): as the sequence (P02918 whole entry) above
T2 sequence (P0AD68 1-577): as the sequence (P0AD68 1-577) above

Consider `N[C@H](C(=O)N[C@H]1Cc2cccc(C(=O)O)c2OB1O)c1ccccc1` [Example 3, (R)-3-((S)-2-amino-2-phenylacetamido)-2-hydroxy-3,4-dihydro-2H-benzo[e][1,2]oxaborinine-8-carboxylic acid], for which the “E. coliK12 PBP1a Potency” value on E. coli K12 PBP1a is “B (B represents a potency between 64 and 1000 μg/mL inclusive)”. In addition, the “E. coli PBP3 Potency” value at E. coli PBP3 was “A (A represents a potency of >1000 μg/mL)”. Also, in the assay on E. coli PBP1b, the “E. coli PBP1b Potency” value was “A (A represents a potency of >1000 μg/mL)”. The MIC in the assay with S. aureus ATCC 29213 is > 128 mg/L; in assay [1] it was 64 to 128 mg/L; in the assay with E. coli DH5α/pLBII it was 128 to 256 mg/L; in assay [2], 128 to 256 mg/L.
For the molecule `Nc1nc(C(NS(N)(=O)=O)C(=O)N[C@H]2Cc3cccc(C(=O)O)c3OB2O)cs1` (stereo partly drawn) [Example 26, (3R)-3-(2-(2-aminothiazol-4-yl)-2-(sulfamoylamino)acetamido)-2-hydroxy-3,4-dihydro-2H-benzo[e][1,2]oxaborinine-8-carboxylic acid], the EC50 in [3] was 30 to 500 µM; in assay [4], < 10 µM; in assay [5], 10 to 100 µM. Moreover, the MIC with S. aureus ATCC 29213 is > 128 mg/L; in [1], < 64 mg/L; in the assay with E. coli DH5α/pLBII, 32 to 64 mg/L; in assay [2] it was 32 to 64 mg/L.
As to `CCN1CCN(C(=O)N[C@H](C)C(=O)N[C@H]2Cc3cccc(C(=O)O)c3OB2O)C(=O)C1=O` [Example 34, (R)-3-((R)-2-(4-Ethyl-2,3-dioxopiperazine-1-carboxamido)propanamido)-2-hydroxy-3,4-dihydro-2H-benzo[e][1,2]oxaborinine-8-carboxylic acid], the EC50 in assay [3] was 30 to 500 µM; in assay [4], 10 to 100 µM; in [5], < 10 µM. For the same molecule, the MIC in the assay on S. aureus ATCC 29213 is > 128 mg/L; in [1], < 64 mg/L; with E. coli DH5α/pLBII, 128 to 256 mg/L; in assay [2], 128 to 256 mg/L.
On to `Nc1nc(C(NC(=O)N2CCN(CC3CC3)C(=O)C2=O)C(=O)N[C@H]2Cc3cccc(C(=O)O)c3OB2O)cs1` (stereo partly drawn) [Example 67, (3R)-3-(2-(2-aminothiazol-4-yl)-2-(4-(cyclopropylmethyl)-2,3-dioxopiperazine-1-carboxamido)acetamido)-2-hydroxy-3,4-dihydro-2H-benzo[e][1,2]oxaborinine-8-carboxylic acid], for which the values for the concentration for a half-maximal effect (EC50) in [3] and in [5] were 30 to 500 µM and < 10 µM, respectively. Besides, the MIC in the assay with S. aureus ATCC 29213 was 64 to 128 mg/L; in [1], < 64 mg/L; with E. coli DH5α/pLBII it was 32 to 64 mg/L; in assay [2], 32 to 64 mg/L.
Take `CCN1CCN(C(=O)N[C@H](C(=O)N[C@H]2Cc3cccc(C(=O)O)c3OB2O)[C@H](O)CO)C(=O)C1=O` [Example 73, (R)-3-((2S,3S)-2-(4-ethyl-2,3-dioxopiperazine-1-carboxamido)-3,4-dihydroxybutanamido)-2-hydroxy-3,4-dihydro-2H-benzo[e][1,2]oxaborinine-8-carboxylic acid]: the EC50 is > 500 µM in assay [3] and > 100 µM in assay [5]. Besides, the MIC in the assay on S. aureus ATCC 29213 was > 128 mg/L; in [1], > 128 mg/L; in the assay with E. coli DH5α/pLBII, > 512 mg/L; in assay [2] it was > 512 mg/L.
For `CCN1CCN(C(=O)N[C@@H](C(=O)N[C@H]2Cc3cccc(C(=O)O)c3OB2O)C(C)C)C(=O)C1=O` [Example 78, (R)-3-((R)-2-(4-ethyl-2,3-dioxopiperazine-1-carboxamido)-3-methylbutanamido)-2-hydroxy-3,4-dihydro-2H-benzo[e][1,2]oxaborinine-8-carboxylic acid], the EC50 in [3] is < 30 µM; in assay [5], < 10 µM. For the same molecule, the MIC was 64 to 128 mg/L in the assay with S. aureus ATCC 29213, < 64 mg/L in assay [1], 32 to 64 mg/L in the assay on E. coli DH5α/pLBII and 32 to 64 mg/L in assay [2].
